Measured values as given in ChEMBL document CHEMBL1201862, “PubChem BioAssay data set” (2004).
Active and inactive are the calls of the source.

Experiments:
[1] = viability of PTEN-deleted HCT116 cells – cell-based, HCT116 PTEN knockout, dose response (AID 1047); assay type: functional;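 note: HCT116 colon tumor cells with PTEN knocked out; cells exposed to compound for 60 hours before readout; potency for loss of cell viability measured by luminescence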
Vero = experiment: cells; assay type: functional; conditions: Chlorocebus sabaeus
INS1 = experiment: INS-1E survival protection against cytokine death – cell-based, luminescence, retest, dose response (AID 449756); assay type: functional; conditions: Rattus norvegicus;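 note: cell death triggered by IL-1 beta plus TNF-alpha plus IFN-gamma mixture; protective hits raise ATP signal compared with cytokine alone wells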
[2] = viability of HCT116 lacking mutant beta-catenin – cell-based, human colon tumor, dose response (AID 1045); assay type: functional;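 note: HCT116 colon tumor cells with beta catenin knocked out; cells exposed to compound for 60 hours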
[3] = target: Voltage-dependent T-type calcium channel subunit alpha-1H (Homo sapiens, UniProt O95180); assay type: functional;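 note: channel activity triggered by adding a high calcium stimulation buffer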
[4] = target: T1, Sentrin-specific protease 7 (Homo sapiens, UniProt Q9BQF6); assay type: functional;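 note: Luminescence-based dose-response confirmation of ultra-high-throughput screening hits, measuring inhibition of SENP7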
T1 sequence (Q9BQF6 whole entry): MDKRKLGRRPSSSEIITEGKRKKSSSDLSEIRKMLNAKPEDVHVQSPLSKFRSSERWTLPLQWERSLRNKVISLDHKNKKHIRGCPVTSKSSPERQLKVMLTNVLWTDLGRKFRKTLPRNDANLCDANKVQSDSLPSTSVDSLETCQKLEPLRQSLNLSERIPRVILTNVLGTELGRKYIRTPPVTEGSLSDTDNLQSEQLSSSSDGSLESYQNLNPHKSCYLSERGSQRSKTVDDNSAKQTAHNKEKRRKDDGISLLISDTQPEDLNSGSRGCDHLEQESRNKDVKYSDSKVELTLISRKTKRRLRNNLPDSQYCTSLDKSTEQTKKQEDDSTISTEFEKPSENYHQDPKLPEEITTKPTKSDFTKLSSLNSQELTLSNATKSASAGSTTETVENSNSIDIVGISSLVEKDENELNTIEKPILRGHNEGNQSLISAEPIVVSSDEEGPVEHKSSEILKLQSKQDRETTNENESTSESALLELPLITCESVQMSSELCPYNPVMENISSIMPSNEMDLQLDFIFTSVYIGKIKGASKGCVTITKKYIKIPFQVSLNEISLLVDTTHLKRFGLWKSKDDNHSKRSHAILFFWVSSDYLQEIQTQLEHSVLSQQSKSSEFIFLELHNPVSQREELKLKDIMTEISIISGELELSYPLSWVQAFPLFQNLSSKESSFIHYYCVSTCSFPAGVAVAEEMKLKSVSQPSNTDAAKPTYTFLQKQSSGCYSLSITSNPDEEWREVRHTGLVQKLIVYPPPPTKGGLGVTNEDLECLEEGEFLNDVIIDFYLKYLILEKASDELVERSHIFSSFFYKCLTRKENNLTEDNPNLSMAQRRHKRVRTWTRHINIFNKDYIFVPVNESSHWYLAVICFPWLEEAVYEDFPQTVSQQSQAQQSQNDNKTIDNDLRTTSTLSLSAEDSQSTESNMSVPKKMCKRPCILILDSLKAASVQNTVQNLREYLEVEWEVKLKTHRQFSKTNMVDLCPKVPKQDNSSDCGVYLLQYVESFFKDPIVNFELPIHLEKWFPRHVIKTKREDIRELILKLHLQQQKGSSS

[5] = target: T2, Sentrin-specific protease 6 (Homo sapiens, UniProt Q9GZR1); assay type: functional;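 note: Luminescence-based dose-response confirmatory assay of SENP6 inhibition, following up an ultra-high-throughput screen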
T2 sequence (Q9GZR1 whole entry): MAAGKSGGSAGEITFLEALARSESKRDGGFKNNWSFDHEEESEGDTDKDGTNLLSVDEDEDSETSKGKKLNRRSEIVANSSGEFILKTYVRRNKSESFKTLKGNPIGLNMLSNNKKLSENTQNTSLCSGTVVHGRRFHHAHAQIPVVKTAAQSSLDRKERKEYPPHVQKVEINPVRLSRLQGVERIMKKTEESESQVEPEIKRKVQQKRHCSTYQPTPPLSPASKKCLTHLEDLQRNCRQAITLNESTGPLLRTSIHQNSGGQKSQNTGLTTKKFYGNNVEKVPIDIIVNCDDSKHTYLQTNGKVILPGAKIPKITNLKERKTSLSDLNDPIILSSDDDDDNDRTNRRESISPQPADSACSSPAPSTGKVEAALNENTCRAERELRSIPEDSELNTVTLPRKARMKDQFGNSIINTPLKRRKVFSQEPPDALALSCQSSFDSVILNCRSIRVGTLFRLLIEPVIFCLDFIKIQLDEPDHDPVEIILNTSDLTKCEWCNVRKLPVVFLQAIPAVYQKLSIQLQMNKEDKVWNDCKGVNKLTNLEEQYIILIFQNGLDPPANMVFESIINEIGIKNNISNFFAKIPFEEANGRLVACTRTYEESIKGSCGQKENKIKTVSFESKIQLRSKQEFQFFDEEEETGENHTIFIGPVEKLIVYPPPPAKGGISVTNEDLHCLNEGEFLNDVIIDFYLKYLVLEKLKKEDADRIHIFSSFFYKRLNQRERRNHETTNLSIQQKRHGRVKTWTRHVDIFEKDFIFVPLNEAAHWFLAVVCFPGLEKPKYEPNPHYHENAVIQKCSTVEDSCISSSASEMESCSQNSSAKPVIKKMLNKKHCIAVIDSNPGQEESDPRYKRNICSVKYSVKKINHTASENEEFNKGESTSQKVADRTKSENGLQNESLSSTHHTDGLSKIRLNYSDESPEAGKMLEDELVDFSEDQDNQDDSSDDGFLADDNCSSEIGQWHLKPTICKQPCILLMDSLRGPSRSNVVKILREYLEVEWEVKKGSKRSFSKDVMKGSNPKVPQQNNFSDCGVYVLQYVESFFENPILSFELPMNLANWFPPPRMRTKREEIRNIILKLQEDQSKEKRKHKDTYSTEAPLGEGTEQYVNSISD

Caspase-3 = target: T3, Caspase-3 (Homo sapiens, UniProt P42574); assay type: functional;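 note: Dose-response selectivity test against caspase-3 for candidate inhibitors of sentrin-specific proteases (SENPs)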
T3 sequence (P42574 whole entry): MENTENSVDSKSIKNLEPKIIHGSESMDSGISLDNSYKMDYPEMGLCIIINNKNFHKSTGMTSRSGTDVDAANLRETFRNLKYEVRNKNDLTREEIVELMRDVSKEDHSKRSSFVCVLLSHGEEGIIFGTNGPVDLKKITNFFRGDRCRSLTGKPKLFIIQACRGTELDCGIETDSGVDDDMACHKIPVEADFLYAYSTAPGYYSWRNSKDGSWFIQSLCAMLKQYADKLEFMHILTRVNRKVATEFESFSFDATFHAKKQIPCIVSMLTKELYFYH

[6] = target: T4, Sentrin-specific protease 8 (Homo sapiens, UniProt Q96LD8); assay type: functional;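 note: luminescence read-out of SENP8 inhibition, dose-response confirmation following an ultra-high-throughput screen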
T4 sequence (Q96LD8 whole entry): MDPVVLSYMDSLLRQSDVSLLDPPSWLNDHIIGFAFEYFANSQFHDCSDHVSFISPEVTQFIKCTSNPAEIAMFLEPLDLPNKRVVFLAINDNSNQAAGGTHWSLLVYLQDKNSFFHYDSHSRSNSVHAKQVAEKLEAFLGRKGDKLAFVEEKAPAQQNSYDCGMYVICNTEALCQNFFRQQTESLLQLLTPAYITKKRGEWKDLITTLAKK

[7] = target: T5, Carboxy-terminal domain RNA polymerase II polypeptide A small phosphatase 1 (Homo sapiens, UniProt Q9GZU7); experiment: CTDSP1 inhibitors, concentration-response, biochemical, absorbance readout, ultra-high-throughput screen actives (AID 540297); assay type: functional
T5 sequence (Q9GZU7 whole entry): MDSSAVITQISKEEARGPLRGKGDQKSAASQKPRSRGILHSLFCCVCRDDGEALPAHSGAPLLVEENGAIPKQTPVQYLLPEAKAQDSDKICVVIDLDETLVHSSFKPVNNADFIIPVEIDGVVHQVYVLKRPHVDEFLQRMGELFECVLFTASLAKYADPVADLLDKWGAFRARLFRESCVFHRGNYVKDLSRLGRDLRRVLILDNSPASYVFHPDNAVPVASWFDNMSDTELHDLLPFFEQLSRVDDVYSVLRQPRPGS

Estrogen receptor = target: T6, Estrogen receptor (Homo sapiens, UniProt P03372);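 note: potency for inhibiting coactivator peptide recruitment to the receptor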
T6 sequence (P03372 whole entry): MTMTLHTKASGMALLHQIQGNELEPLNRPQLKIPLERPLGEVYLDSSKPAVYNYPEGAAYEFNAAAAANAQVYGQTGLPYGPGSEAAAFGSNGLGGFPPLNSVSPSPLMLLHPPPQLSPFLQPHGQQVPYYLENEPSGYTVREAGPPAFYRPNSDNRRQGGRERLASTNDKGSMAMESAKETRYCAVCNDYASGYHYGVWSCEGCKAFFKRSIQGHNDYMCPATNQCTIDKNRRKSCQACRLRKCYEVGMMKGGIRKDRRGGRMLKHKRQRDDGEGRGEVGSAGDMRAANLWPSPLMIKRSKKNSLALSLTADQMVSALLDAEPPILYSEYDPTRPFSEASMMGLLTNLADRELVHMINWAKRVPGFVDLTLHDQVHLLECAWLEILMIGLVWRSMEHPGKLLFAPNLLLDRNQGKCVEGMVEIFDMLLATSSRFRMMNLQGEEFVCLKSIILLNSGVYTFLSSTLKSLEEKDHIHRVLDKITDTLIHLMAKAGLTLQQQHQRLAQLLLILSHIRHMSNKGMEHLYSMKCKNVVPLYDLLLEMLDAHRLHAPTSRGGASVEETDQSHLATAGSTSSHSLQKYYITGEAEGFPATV

[8] = target: Intestinal-type alkaline phosphatase (Homo sapiens, UniProt P09923); experiment: activation of human intestinal alkaline phosphatase – biochemical, dose response (AID 488873); assay type: functional
[9] = target: Intestinal-type alkaline phosphatase (Mus musculus, UniProt P24822); experiment: PubChem AID 488785; assay type: functional
[10] = target: T7, Alkaline phosphatase, tissue-nonspecific isozyme (Homo sapiens, UniProt P05186); experiment: TNAP enzyme inhibition by screening hits, dose response, selectivity assay for mouse IAP inhibitor project, biochemical, human TNAP, uHTS hits (AID 488906); assay type: functional
T7 sequence (P05186 whole entry): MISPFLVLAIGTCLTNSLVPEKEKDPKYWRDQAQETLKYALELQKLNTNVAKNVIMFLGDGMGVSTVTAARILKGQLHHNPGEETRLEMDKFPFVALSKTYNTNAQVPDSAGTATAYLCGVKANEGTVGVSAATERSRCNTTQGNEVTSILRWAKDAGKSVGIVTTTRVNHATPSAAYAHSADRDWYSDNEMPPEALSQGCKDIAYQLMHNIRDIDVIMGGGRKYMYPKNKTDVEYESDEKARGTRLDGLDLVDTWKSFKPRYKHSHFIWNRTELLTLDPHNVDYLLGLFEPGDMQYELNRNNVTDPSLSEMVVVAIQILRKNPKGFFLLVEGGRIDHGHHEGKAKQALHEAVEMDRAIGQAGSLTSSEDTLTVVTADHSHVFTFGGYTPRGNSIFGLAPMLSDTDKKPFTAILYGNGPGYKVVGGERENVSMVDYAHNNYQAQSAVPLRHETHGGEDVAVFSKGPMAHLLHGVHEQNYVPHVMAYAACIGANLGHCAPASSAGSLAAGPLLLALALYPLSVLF

HEK293 [11] = experiment: cells; assay type: functional, cell-based; conditions: Homo sapiens
HEK293 [12] = experiment: cells; assay type: functional, cell-based; conditions: Homo sapiens; remark: listed apart in the source
HEK293 [13] = experiment: NOD2 signaling inhibitors in MDP-stimulated cells, cell-based, uHTS, luminescence (AID 2001); assay type: functional; conditions: Homo sapiens
HEK293 [14] = experiment: inhibition of NOD1-driven NF-kB reporter – cell-based, luminescence, uHTS, primary screen (AID 1578); assay type: functional; conditions: Homo sapiens

Voltage-dependent T-type calcium channel subunit alpha-1H, sequence (O95180 whole entry): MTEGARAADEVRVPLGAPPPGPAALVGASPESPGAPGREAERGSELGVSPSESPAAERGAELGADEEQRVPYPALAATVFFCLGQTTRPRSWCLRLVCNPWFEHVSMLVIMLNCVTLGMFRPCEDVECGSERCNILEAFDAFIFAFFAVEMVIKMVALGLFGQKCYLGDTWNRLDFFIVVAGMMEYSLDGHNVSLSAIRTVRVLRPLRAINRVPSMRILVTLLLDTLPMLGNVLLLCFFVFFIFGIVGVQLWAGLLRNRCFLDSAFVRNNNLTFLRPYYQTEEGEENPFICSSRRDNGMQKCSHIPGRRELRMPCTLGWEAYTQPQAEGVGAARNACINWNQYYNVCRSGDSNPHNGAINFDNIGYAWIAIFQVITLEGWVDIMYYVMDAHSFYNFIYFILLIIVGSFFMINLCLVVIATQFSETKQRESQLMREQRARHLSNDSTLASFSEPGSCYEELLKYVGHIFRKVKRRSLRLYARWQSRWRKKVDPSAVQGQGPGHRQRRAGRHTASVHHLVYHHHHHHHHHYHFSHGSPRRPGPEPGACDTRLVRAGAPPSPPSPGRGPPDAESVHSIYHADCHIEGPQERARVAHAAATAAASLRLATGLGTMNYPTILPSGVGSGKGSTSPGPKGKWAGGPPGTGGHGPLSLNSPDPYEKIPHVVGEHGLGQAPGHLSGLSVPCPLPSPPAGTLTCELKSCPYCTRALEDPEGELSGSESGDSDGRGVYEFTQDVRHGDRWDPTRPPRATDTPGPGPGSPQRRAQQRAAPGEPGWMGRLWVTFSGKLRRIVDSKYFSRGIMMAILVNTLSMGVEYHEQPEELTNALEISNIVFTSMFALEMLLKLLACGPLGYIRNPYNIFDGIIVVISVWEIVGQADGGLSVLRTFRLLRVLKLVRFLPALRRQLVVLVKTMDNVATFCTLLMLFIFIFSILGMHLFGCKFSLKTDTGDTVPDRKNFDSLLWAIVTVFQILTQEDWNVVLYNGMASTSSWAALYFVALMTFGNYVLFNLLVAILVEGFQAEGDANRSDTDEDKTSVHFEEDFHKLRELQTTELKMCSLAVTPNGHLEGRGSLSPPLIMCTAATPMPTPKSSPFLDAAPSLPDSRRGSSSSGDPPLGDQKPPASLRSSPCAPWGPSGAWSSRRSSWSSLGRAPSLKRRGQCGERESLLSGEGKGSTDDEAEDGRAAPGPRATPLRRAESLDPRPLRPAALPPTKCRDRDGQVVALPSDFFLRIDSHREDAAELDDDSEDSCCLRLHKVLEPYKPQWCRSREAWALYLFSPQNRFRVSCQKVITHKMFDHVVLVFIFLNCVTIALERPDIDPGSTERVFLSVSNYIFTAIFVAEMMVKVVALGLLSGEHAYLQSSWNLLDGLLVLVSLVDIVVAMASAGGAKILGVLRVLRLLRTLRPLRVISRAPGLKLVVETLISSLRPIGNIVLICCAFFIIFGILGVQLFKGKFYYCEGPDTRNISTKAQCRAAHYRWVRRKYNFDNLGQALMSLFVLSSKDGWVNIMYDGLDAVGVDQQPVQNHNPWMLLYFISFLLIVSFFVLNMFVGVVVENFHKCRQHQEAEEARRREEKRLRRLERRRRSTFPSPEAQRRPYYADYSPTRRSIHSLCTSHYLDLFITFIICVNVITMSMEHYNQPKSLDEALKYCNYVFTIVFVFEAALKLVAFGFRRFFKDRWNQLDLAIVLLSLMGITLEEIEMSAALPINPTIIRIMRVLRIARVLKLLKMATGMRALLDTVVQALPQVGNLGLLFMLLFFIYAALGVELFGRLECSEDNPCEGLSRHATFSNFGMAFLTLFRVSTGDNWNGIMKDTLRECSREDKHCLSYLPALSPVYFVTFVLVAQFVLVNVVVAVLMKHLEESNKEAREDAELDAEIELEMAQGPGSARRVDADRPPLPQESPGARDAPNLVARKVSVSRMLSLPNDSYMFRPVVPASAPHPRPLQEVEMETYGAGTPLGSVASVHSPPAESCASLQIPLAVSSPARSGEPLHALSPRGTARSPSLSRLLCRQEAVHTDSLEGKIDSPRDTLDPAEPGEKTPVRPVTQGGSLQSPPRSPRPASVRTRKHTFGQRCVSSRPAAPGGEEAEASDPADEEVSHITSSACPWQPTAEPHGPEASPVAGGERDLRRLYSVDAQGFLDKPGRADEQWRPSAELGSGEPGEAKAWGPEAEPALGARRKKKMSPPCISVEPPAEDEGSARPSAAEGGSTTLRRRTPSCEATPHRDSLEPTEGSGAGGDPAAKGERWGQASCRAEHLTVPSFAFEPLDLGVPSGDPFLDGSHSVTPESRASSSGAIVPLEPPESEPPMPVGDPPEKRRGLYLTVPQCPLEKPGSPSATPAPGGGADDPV
Intestinal-type alkaline phosphatase (Homo sapiens, UniProt P09923), sequence (P09923 whole entry): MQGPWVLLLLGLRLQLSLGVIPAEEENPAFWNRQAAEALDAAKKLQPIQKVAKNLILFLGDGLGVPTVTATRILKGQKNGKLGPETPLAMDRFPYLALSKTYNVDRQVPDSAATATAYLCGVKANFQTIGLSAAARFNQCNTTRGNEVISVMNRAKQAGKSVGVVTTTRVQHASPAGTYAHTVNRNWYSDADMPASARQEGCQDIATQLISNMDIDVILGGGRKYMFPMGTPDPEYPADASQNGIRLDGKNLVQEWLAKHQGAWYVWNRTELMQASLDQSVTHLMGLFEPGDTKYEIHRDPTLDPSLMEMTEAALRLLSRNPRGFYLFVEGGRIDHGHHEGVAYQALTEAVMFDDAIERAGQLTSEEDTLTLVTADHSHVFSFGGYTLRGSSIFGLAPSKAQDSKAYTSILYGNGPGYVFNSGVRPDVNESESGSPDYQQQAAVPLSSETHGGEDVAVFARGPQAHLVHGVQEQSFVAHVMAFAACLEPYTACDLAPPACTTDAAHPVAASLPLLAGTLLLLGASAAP
Intestinal-type alkaline phosphatase (Mus musculus, UniProt P24822), sequence (P24822 whole entry): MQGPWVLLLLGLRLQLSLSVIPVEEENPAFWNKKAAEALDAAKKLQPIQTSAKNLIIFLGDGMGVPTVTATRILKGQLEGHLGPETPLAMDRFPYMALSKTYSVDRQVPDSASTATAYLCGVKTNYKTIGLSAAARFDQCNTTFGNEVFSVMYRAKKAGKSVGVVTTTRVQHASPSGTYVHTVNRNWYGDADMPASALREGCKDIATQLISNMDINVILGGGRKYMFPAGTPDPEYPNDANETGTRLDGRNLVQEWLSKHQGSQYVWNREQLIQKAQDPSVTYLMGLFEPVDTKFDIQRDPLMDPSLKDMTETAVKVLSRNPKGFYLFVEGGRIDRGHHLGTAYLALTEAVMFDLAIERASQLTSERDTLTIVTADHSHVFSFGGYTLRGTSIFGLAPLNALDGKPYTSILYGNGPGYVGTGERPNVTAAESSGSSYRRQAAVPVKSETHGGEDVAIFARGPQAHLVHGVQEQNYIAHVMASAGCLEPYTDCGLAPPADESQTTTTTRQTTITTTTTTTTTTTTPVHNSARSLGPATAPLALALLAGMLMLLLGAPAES

COc1ccc(NCc2nnc(SCC(=O)Nc3nc(-c4ccccc4)cs3)n2-c2ccccc2)cc1
EC50 [1]: 2.78 µM (active)
CC50 (Vero): 8.35 µM (active)
AC50 (INS1): 6.62 µM (active)
EC50 [2]: 2.54 µM (active)

CCn1c(CNc2ccc(Cl)cc2)nnc1SCC(=O)OC1CCCCC1
EC50 [3]: 2.56 µM (active)

O=C(Nc1ccc2ccccc2c1)c1cccc(F)c1
IC50 [4]: 4.43 µM (active)
IC50 [5]: 5.72 µM (active)
IC50 (Caspase-3): 18.3 µM (active)
IC50 [6]: > 100 µM (inactive)

Cc1ccccc1CSCC(=O)NC(=O)NCc1ccco1
IC50 [7]: 10.4 µM (active)
IC50 (Estrogen receptor): 9.27 µM (active)

COc1ccccc1CNC(=O)CCNS(=O)(=O)c1ccc2[nH]c(=O)oc2c1
EC50 [8]: 45.1 µM (active)
IC50 [9]: 11.4 µM (active)
IC50 [10]: 27.5 µM (active)

Cc1ccc(S(=O)(=O)Nc2ccc3nc(-c4cccn4C)[nH]c3c2)cc1
EC50 [3]: 5.6 µM (active)

COc1cccc(CNC(=O)CSCc2cnn(-c3ccccc3)c2-n2cccc2)c1
EC50 [3]: 3.66 µM (active)

FC(F)(F)c1cc(C(F)(F)F)c2ccc(Oc3ccccc3)nc2n1
EC50 [3]: 4.65 µM (active)

Cc1cc(N2CCC(C(=O)Nc3ccc(F)cc3)CC2)nc(-c2ccccc2)n1
EC50 [3]: 4.26 µM (active)

CCCCCC(=O)N1C[C@H](O)[C@@H](n2cc(-c3ccc(F)cc3)nn2)C[C@@H]1c1ccc(Cl)cc1
CC50 (Vero): > 25 µM (active)

COC(=O)c1scc(S(=O)(=O)C(C)C)c1N/N=C(\C#N)C(=O)c1ccc(Cl)cc1
IC50 (HEK293 [11]): > 20 µM (inactive)
IC50 (HEK293 [12]): > 20 µM (inactive)
IC50 (HEK293 [13]): > 20 µM (inactive)
EC50 (HEK293 [14]): 2.17 µM (active)
